Tested on: MDA-MB-231 cells
Assay: RPPA (reverse phase protein array)
Assay type: cell-based, human
Conditions: 1000nM
Description: RPPA analysis was performed by MD Anderson Cancer Center RPPA core facility.
Examination of the Molecular Signaling Events) and/or Downstream Pathways Responsible for the Migration and Invasion Effects Observed by Exemplary Compound Treatment. To pinpoint these observations to a molecular signaling event or specific downstream pathway, reverse phase protein array (RPPA) analysis was performed (Table 4).

CNC(=O)c1ccc(Nc2ncc(C(F)(F)F)c(NCc3nccnc3N(C)S(C)(=O)=O)n2)cc1 [Defactinib, defactinib, reference compound] was tested, and the “rel. Protein level, 4E-BP1” value was 115.6%, the “rel. Protein level, 4E-BP1_pS65” value was 91.8% and the “rel. Protein level, 14-3-3-beta” value was 98.4%. The “rel. Protein level, 14-3-3-zeta” value was 102.9%, the “rel. Protein level, 53BP1” value was 111.6% and the “rel. Protein level, A-Raf” value was 108.3%. For the same molecule, the “rel. Protein level, ACC1” value was 95.9%, the “rel. Protein level, ACC_pS79” value was 102.5% and the “rel. Protein level, ADAR1” value was 111.8%. For the same molecule, the “rel. Protein level, AMPK-a2_pS345” value was 98.1%, the “rel. Protein level, AMPKa” value was 105.6% and the “rel. Protein level, AMPKa_pT172” value was 101.3%. For the same molecule, the “rel. Protein level, AR” value was 103.1%, the “rel. Protein level, ARID1A” value was 100.8% and the “rel. Protein level, ATM” value was 93.9%. The “rel. Protein level, ATM_pS1981” value was 99.4%, the “rel. Protein level, ATR_pS428” value was 93.7% and the “rel. Protein level, Akt” value was 99.2%. The “rel. Protein level, Akt_pS473” value was 79.3%, the “rel. Protein level, Akt_pT308” value was 97.2% and the “rel. Protein level, Annexin-I” value was 96.1%. For the same molecule, the “rel. Protein level, Annexin-VII” value was 107.8%, the “rel. Protein level, Atg3” value was 98.1% and the “rel. Protein level, Atg7” value was 99.5%. The “rel. Protein level, Aurora-B” value was 91.9%, the “rel. Protein level, Axl” value was 76.0% and the “rel. Protein level, B7-H4” value was 102.6%. For the same molecule, the “rel. Protein level, B-Raf” value was 104.8%, the “rel. Protein level, B-Raf_pS445” value was 108.8% and the “rel. Protein level, BAP1” value was 83.5%. For the same molecule, the “rel. Protein level, BRD4” value was 108.7%, the “rel. Protein level, Bad_pS112” value was 103.3% and the “rel. Protein level, Bak” value was 103.1%. The “rel. Protein level, Bax” value was 106.4%, the “rel. Protein level, Bc1-xL” value was 100.4% and the “rel. Protein level, Bc12” value was 112.9%. The “rel. Protein level, Beclin_l” value was 99.2%, the “rel. Protein level, BiP-GRP78” value was 103.7% and the “rel. Protein level, Bid” value was 109.2%. For the same molecule, the “rel. Protein level, Bim” value was 105.6%, the “rel. Protein level, C-Raf” value was 96.5% and the “rel. Protein level, C-Raf_pS338” value was 98.1%. The “rel. Protein level, CD4” value was 103.7%, the “rel. Protein level, CD20” value was 96.8% and the “rel. Protein level, CD29” value was 101.9%. For the same molecule, the “rel. Protein level, CD31” value was 100.7%, the “rel. Protein level, CD44” value was 100.5% and the “rel. Protein level, CD45” value was 117.4%. The “rel. Protein level, CD49b” value was 105.5%, the “rel. Protein level, CD134” value was 100.5% and the “rel. Protein level, CDK1_pT14” value was 84.4%. The “rel. Protein level, COG3” value was 105.5%, the “rel. Protein level, Caspase-3” value was 108.3% and the “rel. Protein level, Caspase-7-cleaved-” value was 107.0%. For the same molecule, the “rel. Protein level, Caspase-8” value was 97.2%, the “rel. Protein level, Caveolin-1” value was 135.0% and the “rel. Protein level, Chk2” value was 97.0%. For the same molecule, the “rel. Protein level, Chk2_pT68” value was 106.0%, the “rel. Protein level, Chkl” value was 84.1% and the “rel. Protein level, Chkl_pS296” value was 98.2%. For the same molecule, the “rel. Protein level, Claudin-7” value was 97.3%, the “rel. Protein level, Collagen-VI” value was 102.5% and the “rel. Protein level, Connexin-43” value was 86.5%. The “rel. Protein level, Cox2” value was 144.9%, the “rel. Protein level, Cox-IV” value was 101.8% and the “rel. Protein level, Creb” value was 103.7%. For the same molecule, the “rel. Protein level, Cyclin-B1” value was 86.8%, the “rel. Protein level, Cyclin-D1” value was 100.5% and the “rel. Protein level, Cyclin-D3” value was 97.2%. The “rel. Protein level, Cyclin-E1” value was 101.8%, the “rel. Protein level, Cyclophilin-F” value was 85.5% and the “rel. Protein level, D-a-Tubulin” value was 98.2%. For the same molecule, the “rel. Protein level, DJ1” value was 105.3%, the “rel. Protein level, DM-Histone-H3” value was 106.7% and the “rel. Protein level, DM-K9-Histone-H3” value was 108.9%. The “rel. Protein level, DUSP4” value was 135.6%, the “rel. Protein level, E2F1” value was 98.4% and the “rel. Protein level, E-Cadherin” value was 122.5%. For the same molecule, the “rel. Protein level, EGFR” value was 93.7%, the “rel. Protein level, EGFR_pY1173” value was 100.8% and the “rel. Protein level, EMA” value was 102.2%. For the same molecule, the “rel. Protein level, ENY2” value was 95.1%, the “rel. Protein level, ER” value was 99.6% and the “rel. Protein level, ER-a_pS118” value was 98.5%. For the same molecule, the “rel. Protein level, ERCC1” value was 85.6%, the “rel. Protein level, ERCC5” value was 110.3% and the “rel. Protein level, Elk1_pS383” value was 97.3%. The “rel. Protein level, Ets-1” value was 90.6%, the “rel. Protein level, FAK” value was 116.1% and the “rel. Protein level, FAK_pY397” value was 93.5%. The “rel. Protein level, FASN” value was 98.1%, the “rel. Protein level, FOXM1” value was 90.3% and the “rel. Protein level, Fibronectin” value was 89.9%. For the same molecule, the “rel. Protein level, FoxO3a” value was 104.9%, the “rel. Protein level, FoxO3a_pS318_S321” value was 99.0% and the “rel. Protein level, G6PD” value was 102.3%. The “rel. Protein level, GAPDH” value was 104.0%, the “rel. Protein level, GATA3” value was 91.1% and the “rel. Protein level, GATA-6” value was 99.4%. For the same molecule, the “rel. Protein level, GCLM” value was 97.0%, the “rel. Protein level, GCN5L2” value was 94.5% and the “rel. Protein level, GSK-3a-b” value was 101.2%. For the same molecule, the “rel. Protein level, GSK-3a-b_pS21_S9” value was 98.8%, the “rel. Protein level, Gab2” value was 94.6% and the “rel. Protein level, Glutamate-D1-2” value was 100.6%. For the same molecule, the “rel. Protein level, Glutaminase” value was 100.6%, the “rel. Protein level, Granzyme-B” value was 102.7% and the “rel. Protein level, Gys” value was 107.0%. The “rel. Protein level, Gys_pS641” value was 106.2%, the “rel. Protein level, H2AX_pS140” value was 101.9% and the “rel. Protein level, HER2” value was 91.7%. The “rel. Protein level, HER2_pY1248” value was 101.5%, the “rel. Protein level, HER3” value was 98.5% and the “rel. Protein level, HER3_pY1289” value was 98.2%. The “rel. Protein level, HES1” value was 97.2%, the “rel. Protein level, HLA-DR-DP-DQ-DX” value was 98.9% and the “rel. Protein level, HSP27” value was 101.4%. The “rel. Protein level, HSP27_pS82” value was 114.2%, the “rel. Protein level, HSP70” value was 103.2% and the “rel. Protein level, Heregulin” value was 109.2%. For the same molecule, the “rel. Protein level, Hexokinase-II” value was 98.0%, the “rel. Protein level, Hif-l-alpha” value was 116.1% and the “rel. Protein level, Histone-H3” value was 123.3%. For the same molecule, the “rel. Protein level, IGF1R_pY1135_Y1136” value was 98.7%, the “rel. Protein level, IGFBP2” value was 90.9% and the “rel. Protein level, IGFRb” value was 99.7%. For the same molecule, the “rel. Protein level, INPP4b” value was 99.6%, the “rel. Protein level, IR-b” value was 110.0% and the “rel. Protein level, IRF-1” value was 104.1%. For the same molecule, the “rel. Protein level, IRS1” value was 96.1%, the “rel. Protein level, JNK2” value was 111.4% and the “rel. Protein level, JNK_pT183_Y185” value was 99.7%. For the same molecule, the “rel. Protein level, Jagged1” value was 107.3%, the “rel. Protein level, Jak2” value was 104.3% and the “rel. Protein level, LC3A-B” value was 102.5%. For the same molecule, the “rel. Protein level, LDHA” value was 121.2%, the “rel. Protein level, LRP6_pS1490” value was 109.2% and the “rel. Protein level, Lck” value was 101.9%. The “rel. Protein level, MAPK_pT202-Y204” value was 98.0%, the “rel. Protein level, MCT4” value was 119.5% and the “rel. Protein level, MDM2_pS166” value was 92.3%. The “rel. Protein level, MEK1” value was 110.2%, the “rel. Protein level, MEK1_p_S217-S221” value was 98.0% and the “rel. Protein level, MERIT40_pS29” value was 91.1%. The “rel. Protein level, MIF” value was 118.6%, the “rel. Protein level, MIG6” value was 133.9% and the “rel. Protein level, MMP2” value was 103.4%. The “rel. Protein level, MMP14-[EP1264Y]” value was 138.0%, the “rel. Protein level, MMP-14” value was 139.1% and the “rel. Protein level, MSH6” value was 99.2%. For the same molecule, the “rel. Protein level, MSI2” value was 100.7% and the “rel. Protein level, Mcl-1” value was 101.9%.

— US20200038513A1, “MODULATORS OF FAK PROTEOLYSIS AND ASSOCIATED METHODS OF USE” (ARVINAS OPERATIONS, INC., priority 2018, published 2020)
